Data reported in patent US20210121482A1, “WITHANOLIDES FOR THE TREATMENT OF CACHEXIA” (University of Louisville Research Foundation, Inc., priority 2019, published 2021).

Key:
[1] = tested on: heart (cardiomyocytes, collagen deposition); assay: Histology and morphometric heart analysis; assay type: in vivo, mice
Source text: The hearts were isolated, flash frozen in liquid nitrogen, mounted in O.C.T. embedding medium, and then sectioned using a microtome cryostat. To assess tissue morphology, 8 μm thick transverse sections were cut from the mid-ventricle of the heart. These sections were then subjected to H&E staining or Masson's trichrome staining. Images of H&E-stained and Masson's trichrome-stained heart sections were quantified using Fiji software (National Institutes of Health software) to measure myofiber cross-sectional area (CSA) or the degree of collagen deposition, respectively. Cardiac myofiber CSA was calculated by analyzing 100-200 fibers per heart. Collagen deposition was quantified from the Masson's trichrome-stained tissue.

TA, GA and QF muscles = assay: Muscle mass and TA myofiber CSA (Example 2); assay type: in vivo, mice
Source text: Histology and Morphometric Analysis of Skeletal Muscle: Select muscles of the lower limb of the mice were isolated, flash frozen in liquid nitrogen, mounted in O.C.T. embedding medium, and then sectioned using a microtome cryostat. To assess tissue morphology, 10 μm thick transverse sections were cut from the mid-belly of the tibialis anterior (TA) and then subjected to Hematoxylin and Eosin (H&E) staining. Images of H&E-stained TA muscle sections were quantified using Fiji software (National Institute of Health software) to measure myofiber cross-sectional area (CSA). Skeletal myofiber CSA was calculated by analyzing ˜500-700 myofibers per muscle as previously described (32).
Post-mortem, select muscles of the lower extremities, including tibialis anterior (TA), gastrocnemius (GA), and quadriceps femoris (QF), were collected and weighed to detect changes in muscle mass, with results shown in FIG. 14A-14C, respectively. Muscle weights were normalized by the initial body weight (I.B.W.) to account for differences in the size of the mouse/muscle at baseline, while excluding the confounding effect of tumor burden on body weight.

[2] = tested on: inflammatory cytokines and NLRP3 inflammasome markers in tumor samples; assay: qPCR of xenografted tumor samples; assay type: in vivo, Homo sapiens
Description: Total RNA Extraction and qPCR: Isolation of total RNA from xenografted tumor samples was performed using an RNeasy® Mini Kit (Qiagen Catalog #74104) according to the manufacturer's instructions. Isolation of total RNA from skeletal muscle was performed using an RNeasy® Fibrous Tissue Mini Kit (Qiagen Catalog #74704) according to the manufacturer's instructions. First strand cDNA was synthesized using 1 μg of purified RNA and a commercially available kit (iScript™ cDNA synthesis, Bio-Rad Catalog #170-8891), Quantification of mRNA expression was performed similar to as previously described (Hindi and Kumar, 2016) using the SYBR Green dye method on a StepOnePlus™ system (Applied Biosystems) using gene-specific primers, as shown in Table 1.

A2780 = assay: Effect on ovarian cancer cell line A2780; assay type: cell-based; details: A2780 cells; through reactive oxygen species production and DNA damage
A2780 cells = assay: Free peritoneal tumor weight (Example 1); assay type: in vivo, mice; details: 2 and 6 mg/kg, vs vehicle treated group
Source text: Free peritoneal tumors (visible tumors) not associated with an organ were collected and weighed to assess WFA effects. […] At the time of euthanization and tissue collection, tumors associated with the intestines were found most frequently in the vehicle treated group and were of the largest size.

[3] = tested on: left ventricular systolic and diastolic function; assay: Echocardiography; assay type: in vivo, mice
Description: Left ventricular (LV) systolic and diastolic function were evaluated by transthoracic echocardiography using a Vevo 3100 system and a 40 MHz linear probe (FUJIFILM VisualSonics Inc., Toronto, Ontario, Canada). Mice were anesthetized with isoflurane, maintained at an equivalent surgical depth of anesthesia (induction chamber at 5% with 1.5-2.0 L/min 02 flow, followed by 1.5-2.0% with 1.5-2.0 L/min 02 flow), and placed in the supine position. The skin over the thorax was shaved and then briefly subjected to a depilatory cream. Body temperature was maintained at 37-38° C., and heart rate was monitored using the accompanying Vevo Imaging Station. Briefly, variables that represent diastolic function (E/A ratio, isovolumetric relaxation time (IVRT), and (E/e′) were measured during the resting condition from an apical four-chamber view with conventional pulsed wave tissue Doppler. The E/A ratio was calculated from the peak velocity flow in early diastole (the E wave) to the peak velocity flow in late diastole caused by atrial contraction (the A wave) during resting conditions.
An image was captured along the parasternal short axis and analyzed offline using the Vevo® Lab software. Standard measures of LV structure [i.e., LV internal diameter (LVID) and LV posterior wall thickness (PWT)] and function [i.e., stroke volume (SV), cardiac output (CO), and ejection fraction (EF)] were obtained along the parasternal short axis during resting and stress conditions. In M-mode, wall thickness and chamber dimensions across the sample line were used to calculate anatomical and functional parameters. End-diastolic and end-systolic volumes were estimated from LVID […]. Results from five cardiac cycles during expiration were averaged together and used for between-group and within-group comparisons. Continuous ECG and heart rate monitoring were performed over a period of one hour while the other measurements were collected.

[4] = tested on: ovarian cancer-induced cachexia; assay: Grip strength (Example 1); assay type: in vivo, mice; details: for normalized forelimb grip strength: 2 and 6 mg/kg
Description: Grip Strength Measurements: Before assessment, mice were weighed on a commercially available digital scale. Forepaw and total grip strength of mice were measured using a digital grip strength meter (Columbus Instruments, Columbus, Ohio, USA) and then normalized by total body weight. Before the beginning of the test, the mice were acclimatized for five minutes. The mouse was allowed to grasp the total paw pull-bar assembly, and in a separate experiment the forepaw pull-bar assembly. The mouse was then gently drawn with constant force in a straight line away from the device until the mouse could no longer grasp the bar. Force at time of release was recorded as the peak tension. Each mouse was tested five times with a delay of 20-40 seconds between each testing. The mean peak tension was calculated from the recordings normalized by total body weight.

[5] = 6 mg/kg, vs vehicle treated group
[6] = 2 and 6 mg/kg, vs vehicle treated group
[7] = tumor-bearing, 2 and 4 mg/kg, vs tumor-bearing vehicle

`CC1=C(CO)C(=O)O[C@@H]([C@@H](C)[C@H]2CC[C@H]3[C@@H]4C[C@H]5O[C@]56[C@@H](O)C=CC(=O)[C@]6(C)[C@H]4CC[C@]23C)C1` [WFA, (4β,5β,6β,22R)-4,27-Dihydroxy-5,6:22,26-diepoxyergosta-2,24-diene-1,26-dione] was tested, and the “cross-sectional area (CSA) of cardiomyocytes” value ([1]; tumor-bearing WFA-treated groups vs tumor-bearing vehicle) was “partial recovery of the CSA of cardiomyocytes”, the “reduction in heart weight (normalized by tibial length)” value ([1]; tumor-bearing, both doses, vs tumor-bearing vehicle) was “significantly blunted” and the “percentage of connective tissue in heart” value ([1]; tumor-bearing, either dose, vs tumor-bearing vehicle) was “significantly decreased”. For the same molecule, the “collagen deposition / connective tissue in heart” value ([1]; tumor-free WFA-treated groups vs tumor-free vehicle) was “comparable amount of connective tissue”, the heart weight ([1]; tumor-free animals) was “did not have any effect on heart weight in tumor-free animals” and the “normalized wet weight of TA and GA muscles” value (TA, GA and QF muscles; tumor-bearing, 2 and 4 mg/kg, vs vehicle-treated) was “statistically significant increase in normalized wet weight of the TA and GA muscles”. The “average myofibrillar cross-sectional area (CSA) in TA muscle” value (TA, GA and QF muscles; tumor-bearing, WFA 2 mg/kg) was 1629.72±94.96 μm2, the “average myofibrillar cross-sectional area (CSA) in TA muscle” value (TA, GA and QF muscles; tumor-bearing, WFA 4 mg/kg) was 1748.13±68.90 μm2 and the “normalized weight of TA, GA and QF muscles” value (TA, GA and QF muscles; tumor-free, 4 mg/kg, vs vehicle-treated, normalized by initial body weight) was “significant increase in normalized weight of the TA, GA, and QF muscles”. The “average myofibrillar cross-sectional area (CSA) in TA muscle” value (TA, GA and QF muscles; tumor-free, WFA 2 mg/kg) was 1916.39±85.72 μm2, the “average myofibrillar cross-sectional area (CSA) in TA muscle” value (TA, GA and QF muscles; tumor-free, WFA 4 mg/kg) was 1904.98±80.50 μm^2 and the “relative transcript levels of TNFα, IFNγ, IL-6, IL-8 in tumor” value ([2]; 2 mg/kg, vs vehicle treated group) was “significantly reduced”. The “relative transcript levels of HO-1 in tumor” value ([2]; 2 mg/kg, vs vehicle treated group (p=0.06)) was “trended towards an increase”, the “relative gene expression of IL-18 in tumor” value ([2]; 2 mg/kg, vs vehicle treated group (p=0.07)) was “trend towards reduction” and the “relative mRNA expression of TNFα in tumor” value [2, 5] was “significantly reduced”. For the same molecule, the “relative transcript levels of HO-1 in tumor” value ([2]; 6 mg/kg, vs vehicle treated group (p=0.03)) was “significantly increased”, the “relative expression of IL-6 and IL-8 genes in tumor” value ([2]; 6 mg/kg, vs vehicle treated group (p=0.07, p=0.09)) was “trend towards reduction” and the “relative gene expression of IL-18 in tumor” value ([2]; 6 mg/kg, vs vehicle treated group (p=0.21)) was “did not approach the level of statistical significance”. The “reduction in NLRP3 mRNA levels in tumor” value [2, 6] was “not found to be significant”, the “relative transcript levels of CASP1 in tumor” value [2, 6] was “dose-dependent decrease” and the “relative transcript levels of IL-1β in tumor” value [2, 6] was “significantly reduced in both WFA treated groups”. For the same molecule, the cell death (A2780) was “autophagic cell death”, the “weight of free peritoneal tumors” value (A2780 cells) was “significantly reduced the size of peritoneal tumors” and the “tumors associated with the intestines” value (A2780 cells; at tissue collection) was “fewer and smaller tumors”. For the same molecule, the “isovolumetric relaxation time (IVRT)” value ([3]; WFA vs vehicle within tumor-free or tumor-bearing groups) was “no significant differences within the tumor-free or tumor-bearing groups”, the “cardiac output (CO)” value ([3]; tumor-bearing mice, WFA treatment) was “similarly normalized” and the LV mass [3, 7] was “significant increase in LV mass”. For the same molecule, the “diastolic dysfunction (E/A ratio, E/e′ ratio)” value [3, 7] was “partially improved”, the “fractional shortening (FS)” value ([3]; tumor-bearing, WFA 2 mg/kg) was 57.8±3.6% and the “fractional shortening (FS)” value ([3]; tumor-bearing, WFA 4 mg/kg) was 55.3±3.2%. For the same molecule, the diastolic function ([3]; tumor-free animals) was “did not affect diastolic function in tumor-free animals”, the “HR and CO” value ([3]; tumor-free mice, WFA treatment) was “did not have any effect on HR or CO in tumor-free mice” and the heart rate ([3]; tumor-free or tumor-bearing WFA-treated groups vs tumor-free vehicle) was “No significant differences in heart rate”. For the same molecule, the LV mass ([3]; tumor-free, vehicle vs either dose of WFA) was “No significant difference in LV mass”, the “normalized total limb grip strength” value ([4]; 2 mg/kg, vs vehicle treated group, weeks 1-3) was “significant protective effect on total limb grip strength” and the “normalized total limb grip strength” value [4, 5] was “initially protective, but the grip strength eventually deteriorated to the same extent as the vehicle treated group”. The “normalized forelimb grip strength” value ([4]; vs control group, significant at week 3) was “reduction in normalized grip strength” and the “normalized forelimb grip strength” value ([4]; vs vehicle treated group, significant by week 2) was “attenuation of normalized forelimb grip strength”.
